{"source": "paper PMC10641813", "about": "(Journal of Medicinal Chemistry, 2023)", "key": {"MDA-MB 231 cells": {"system": "MDA-MB 231 cells", "experiment": "Inhibition of MDA-MB 231 TNBC cell growth (hypoxia, cell counting)", "details": "72 h, 1% O2", "experimental": "(§7) Cells were grown in Dulbecco’s modified Eagle’s medium (D-MEM) supplemented with 10% fetal bovine serum (FBS) at 37 °C with 5% CO2. In all experiments, 300,000 cells were plated in 9 cm^2 dishes and exposed to test compound dissolved in DMSO (0.1% final concentration) at the indicated concentrations. […] Cells were kept at low passage, returning to the original frozen stocks every 3–4 months. Hypoxic culture conditions were realized in the presence of 1% O2 and 5% CO2. […] After 72 h of incubation at 37 °C with 1% O2 and 5% CO2, cells were trypsinized, and cell counting was performed with the MACSQuant analyzer (Miltenyi Biotec).[76]"}, "HT29/DX cells [1]": {"system": "HT29/DX cells", "experiment": "Intracellular accumulation of DOX in HT29/DX cells", "format": "cell-based, human", "details": "5 μM DOX 3 h, 15 at 1, 10, 100 nM", "description": "(§1) In this model, also at the highest concentration (100 nM), the compound was not able to fully restore the accumulation of the drug to the intracellular level of MDCK cells, which were devoid of P-gp.\n(§2) Figure S5. Dose-dependent viability of HT29 and HT29/DX (A), MDCK and MDCK/P-gp (B) cells, incubated with increasing concentrations (0-10 µM) of 15 for 72 h, measured with a spectrophotometric assay. Data are means ± SD (n = 3). **p<0.01, ***p<0.001: versus untreated cells (“0”). […]\n(§3) drug retention was measured spectrofluorimetrically. Data are means ± SD (n=3)., ***p<0.001: versus HT29 or […]"}, "tubulin": {"system": "tubulin", "experiment": "Tubulin assembly (polymerization) assay", "format": "biochemical", "details": "at 20 μM", "experimental": "The reaction mixtures contained 0.8 M monosodium glutamate (pH 6.6 with HCl in a 2 M stock solution), 10 μM tubulin, 4% (v/v) DMSO, and varying concentrations of compound. […] The extent of the reaction was measured."}, "MDCK/P-gp cells [2]": {"system": "MDCK/P-gp cells", "experiment": "Intracellular accumulation of DOX in MDCK/P-gp cells", "format": "cell-based, canine", "details": "5 μM DOX 3 h, 15 at 1, 10, 100 nM", "description": "as §1, §2, §3"}, "P-gp [3]": {"target": "T1, P-gp (Homo sapiens, UniProt P08183)", "T1 sequence (P08183 whole entry)": "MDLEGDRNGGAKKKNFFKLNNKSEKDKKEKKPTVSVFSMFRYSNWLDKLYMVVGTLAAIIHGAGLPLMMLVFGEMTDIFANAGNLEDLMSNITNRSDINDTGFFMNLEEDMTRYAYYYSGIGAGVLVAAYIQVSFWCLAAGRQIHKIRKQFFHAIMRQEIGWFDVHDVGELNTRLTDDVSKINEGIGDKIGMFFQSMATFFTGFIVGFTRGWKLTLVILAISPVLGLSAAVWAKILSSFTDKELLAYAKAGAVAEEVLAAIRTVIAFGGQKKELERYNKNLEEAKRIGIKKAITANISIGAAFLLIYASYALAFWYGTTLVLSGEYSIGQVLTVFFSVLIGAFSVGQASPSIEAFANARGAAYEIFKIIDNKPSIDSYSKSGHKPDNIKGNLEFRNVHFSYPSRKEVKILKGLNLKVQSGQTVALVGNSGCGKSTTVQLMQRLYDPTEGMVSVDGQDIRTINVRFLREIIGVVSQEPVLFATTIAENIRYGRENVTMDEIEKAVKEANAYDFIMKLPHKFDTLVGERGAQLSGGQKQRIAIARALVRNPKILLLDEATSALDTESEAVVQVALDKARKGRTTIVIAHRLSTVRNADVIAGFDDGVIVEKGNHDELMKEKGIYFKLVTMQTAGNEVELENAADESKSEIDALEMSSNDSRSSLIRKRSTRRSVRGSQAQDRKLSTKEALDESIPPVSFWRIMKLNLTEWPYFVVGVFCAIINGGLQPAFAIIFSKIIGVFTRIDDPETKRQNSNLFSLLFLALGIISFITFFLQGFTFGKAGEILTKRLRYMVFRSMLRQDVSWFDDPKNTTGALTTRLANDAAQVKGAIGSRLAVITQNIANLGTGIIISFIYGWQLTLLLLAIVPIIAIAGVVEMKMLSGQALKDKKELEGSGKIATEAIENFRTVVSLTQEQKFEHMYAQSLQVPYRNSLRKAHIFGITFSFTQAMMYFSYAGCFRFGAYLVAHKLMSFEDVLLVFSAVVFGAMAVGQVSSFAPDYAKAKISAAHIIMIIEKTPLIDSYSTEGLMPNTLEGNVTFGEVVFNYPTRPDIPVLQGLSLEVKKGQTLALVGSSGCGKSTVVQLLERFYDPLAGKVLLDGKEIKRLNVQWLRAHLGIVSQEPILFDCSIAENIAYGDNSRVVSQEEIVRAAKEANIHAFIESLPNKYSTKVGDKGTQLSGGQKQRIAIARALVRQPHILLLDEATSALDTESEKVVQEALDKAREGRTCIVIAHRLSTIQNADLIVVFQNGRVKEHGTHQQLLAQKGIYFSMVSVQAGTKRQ", "experiment": "P-gp ATPase activity, protein immunopurified from MDCK/P-gp cells", "details": "for Pgp activity (rate of ATP hydrolysis) MDCK-Pgp: 3 h, single replicates of I-III exp", "experimental": "(§8) 100 μg of each immunopurified protein was incubated for 30 min at 37 °C with 50 μL of the reaction mixture (25 mM Tris/HCl, 3 mM ATP, 50 mM KCl, 2.5 mM MgSO4, 3 mM dithiothreitol, 0.5 mM EGTA, 2 mM ouabain, 3 mM NaN3; pH 7.0). […] After 30 min incubation at room temperature, the absorbance of the phosphate hydrolyzed from ATP was measured at 620 nm, using a Packard EL340 microplate reader. The absorbance was converted into nmoles hydrolyzed phosphate (Pi)/min/mg protein, according to the titration curve previously prepared."}, "[4]": {"system": "human primary T lymphocytes", "experiment": "Toxicity on human primary T lymphocytes (annexin V/propidium iodide flow cytometry)", "details": "30 μM, 72 h, healthy/normal T cells", "experimental": "After 72 h, the frequency of late apoptotic cells was assayed by staining with annexin V and propidium iodide.\nPotential toxicity on healthy cells was evaluated by treating human primary T lymphocytes from two healthy donors with 30 μM 15 or with a control vehicle (DMSO). Healthy donors’ peripheral blood mononuclear cells (PBMCs) were isolated by Lymphoprep (Nycomed) gradient centrifugation. T lymphocytes were negatively selected from PBMCs using magnetic Dynabeads Untouched Human T Cells Kit (Thermo Fisher Scientific) following the manufacturer’s instructions. Apoptotic cell death was evaluated using APC Annexin-V Apoptosis Detection Kit with PI (Thermo Fisher Scientific). […] Cells were then stained using annexin-V/APC and propidium iodide according to the manufacturer’s instruction. Cell populations were acquired using a FACS Canto II flow cytometer (BD Biosciences). Flow cytometric analysis was performed using Flow Jo Flow Cytometric Analysis Software."}, "SW620 cells": {"system": "SW620 cells", "experiment": "Inhibition of growth of SW620 cells (XTT)", "details": "read-out: IC50 SW620; human colorectal carcinoma cells; combinations: each compound at its IC50 concentration", "experimental": "(§9) In drug combination studies, each compound was used at the corresponding IC50 concentration.\n(§10) Cells were grown in Dulbecco’s modified Eagle’s medium (D-MEM) supplemented with 10% fetal bovine serum (FBS) at 37 °C with 5% CO2. In all experiments, 300,000 cells were plated in 9 cm^2 dishes and exposed to test compound dissolved in DMSO (0.1% final concentration) at the indicated concentrations. […] Cells were kept at low passage, returning to the original frozen stocks every 3–4 months."}, "MDCK/P-gp cells [5]": {"system": "MDCK/P-gp cells", "experiment": "Viability of MDCK/P-gp cells with DOX alone or coincubated with 15 (WST-1)", "format": "cell-based, canine", "details": "15 at 1, 10, 100 nM coincubated with 5 μM DOX, 72 h", "description": "(§4) Cells were seeded in 96-well plates."}, "HCT116 cells": {"system": "HCT116 cells", "experiment": "Inhibition of growth of HCT116 cells (MTT)", "details": "read-out: IC50 HCT116; human colorectal carcinoma cells; combinations: each compound at its IC50 concentration", "experimental": "as §9, §10"}, "OVCAR-8 cells": {"system": "OVCAR-8 cells", "experiment": "Inhibition of growth of OVCAR-8 cells", "format": "cell-based, human", "details": "ovarian tumor cell line 8, 96 h", "description": "(§5) ; 11 and 15, NCI/ADR-RES and OVCAR-8 cells) to 4.8 (19, OVCAR-8 cells). […] . […] Cells were seeded in 96-well plates."}, "MDCK cells": {"system": "MDCK cells", "experiment": "Viability of MDCK cells with DOX alone or coincubated with 15 (WST-1)", "format": "cell-based, canine", "details": "MDCK cells, 15 at 1, 10, 100 nM coincubated with 5 μM DOX, 72 h", "description": "as §4"}, "HT29/DX cells [6]": {"system": "HT29/DX cells", "experiment": "Viability of HT29/DX cells with DOX alone or coincubated with 15 (WST-1)", "format": "cell-based, human", "details": "15 at 1, 10, 100 nM coincubated with 5 μM DOX, 72 h", "description": "as §4"}, "HT29 cells": {"system": "HT29 cells", "experiment": "Viability of HT29 cells with DOX alone or coincubated with 15 (WST-1)", "format": "cell-based, human", "details": "15 at 1, 10, 100 nM coincubated with 5 μM DOX, 72 h", "description": "as §4"}, "[7]": {"system": "HT29, HT29/DX, MDCK and MDCK/P-gp cells", "experiment": "Cytotoxicity of 15 alone (WST-1 viability)", "details": "1–100 nM 15 alone, 72 h, four cell lines", "experimental": "Cell lines were obtained from the American Tissue Culture Collection (ATCC), unless specified otherwise. Cells were grown in Dulbecco’s modified Eagle’s medium (D-MEM) supplemented with 10% fetal bovine serum (FBS) at 37 °C with 5% CO2. In all experiments, 300,000 cells were plated in 9 cm^2 dishes and exposed to test compound dissolved in DMSO (0.1% final concentration) at the indicated concentrations. […] Cells were kept at low passage, returning to the original frozen stocks every 3–4 months. […] Human chemosensitive HT29 colon cancer cells were purchased from ATCC (Manassas, VA). […] MDCK and MDCK/P-gp (a gift of Prof. P. Borst, NKI-AVL Institute, Amsterdam, The Netherlands) were grown in DMEM high glucose supplemented with 10% FBS, 1% penicillin, 1% v/v penicillin–streptomycin, and 1% v/v glutamine. […] Cells were seeded in 96-well plates. […] Cell viability was evaluated using the WST-1 assay (Sigma-Merck), as per the manufacturer’s instructions, using a Packard EL340 microplate reader (Bio-Tek Instruments, Winooski, VT). The absorbance units of the untreated cells were considered 100%; the absorbance units of the other experimental conditions were expressed as a percentage versus the absorbance units of the untreated cells."}, "[8]": {"system": "cleaved PARP and cleaved caspase-3 in HCT116 cells", "experiment": "Markers of apoptosis in HCT116 cells (Western blot)", "format": "cell-based, human", "details": "increasing concentrations, 72 h", "source_text": "Detection of cleaved poly(ADPribose) polymerase (PARP) by antibodies is considered a prominent marker of apoptosis. […] Overexpression of the 24 kDa N-terminal fragment inhibits DNA repair and ADPribose formation and stimulates apoptosis,[45] with consequent increase of PARP full-length/cleaved ratio and a darker cleaved band. During apoptosis, caspase-3 is a major cause of proteolysis. Detection of cleaved caspase-3 is also a reliable marker of apoptosis since it allows the quantification of cells that are dying or have died by apoptosis.[46]\n(§6) Western blot was performed as previously described.[79] […] Cell lysates were subjected to SDS-polyacrylamide gel electrophoresis and transferred to a nitrocellulose membrane. The membrane was blocked, washed, and incubated with primary antibodies at 37 °C overnight [anti-β-catenin (D10A8) XP mAb #8480 (Cell Signaling), anti-cMyc #9402S (Cell Signaling), anticleaved caspase 3 (Asp175) #9661 (Cell Signaling), and anti-PARP #9542S (Cell Signaling)]. After the membrane was washed, it was incubated with secondary antibodies at 37 °C for 30 min. The membrane was washed again with Tris-buffered saline/Tween-20, and the samples were exposed and imaged using the WesternBright ECL solution (#K-12045-D50 Advansta)."}, "SW480 cells": {"system": "SW480 cells", "experiment": "Inhibition of growth of SW480 cells (XTT)", "details": "read-out: IC50 SW480; human colorectal carcinoma cells; combinations: each compound at its IC50 concentration", "experimental": "as §9, §10"}, "hCA IX": {"target": "T2, hCA IX (Homo sapiens, UniProt Q16790)", "T2 construct": "made in house", "experiment": "Stopped flow CO2 hydrase assay, hCA IX", "format": "biochemical", "details": "stopped flow technique, mean from three assays"}, "BT-549 cells": {"system": "BT-549 cells", "experiment": "Inhibition of BT-549 TNBC cell growth (hypoxia, cell counting)", "details": "72 h, 1% O2", "experimental": "as §7"}, "MCF-7 cells": {"system": "MCF-7 cells", "experiment": "Inhibition of growth of MCF-7 cells", "format": "cell-based, human", "details": "human nonmetastatic breast cancer epithelial cells", "description": "as §5"}, "P-gp [9]": {"target": "T1, P-gp", "experiment": "P-gp ATPase activity, protein immunopurified from HT29/DX cells", "details": "for Pgp activity (rate of ATP hydrolysis) HT29/DX: 3 h, single replicates of I-III exp", "experimental": "as §8"}, "[10]": {"system": "Wnt target genes Fgf20 and Sall4", "experiment": "Fgf20 and Sall4 mRNA levels in HCT116 cells (qPCR)", "format": "cell-based, human", "description": "Total mRNA was isolated from cells with TriReagent (#R2050–1–200 Zymo Research), and complementary DNA (cDNA) was synthesized by the Sensifast cDNA synthesis kit (#BIO-65054 Bioline). Quantitative PCR was performed with SensiFast Sybr Lo-Rox Mix (#BIO-94020 Bioline), using an Applied Biosystems ViiA 7 Real-Time PCR System instrument (doi: 10.1038/s41389-019-0175-6) and the following amplification primers: • β-actin forward: […]; • β-actin reverse: […]; • Fgf20 forward: […]; • Fgf20 reverse: […]; • Sall4 forward: […]; • Sall4 reverse: […]."}, "NCI/ADR-RES cells": {"system": "NCI/ADR-RES cells", "experiment": "Inhibition of growth of NCI/ADR-RES DOX-resistant cells", "format": "cell-based, human", "details": "DOX-resistant cell line derived from OVCAR-8, 96 h", "description": "as §5"}, "[11]": {"system": "β-catenin and MYC in HCT116 cells", "experiment": "β-Catenin and c-Myc levels in HCT116 cells (Western blot)", "format": "cell-based, human", "details": "LiCl 50 mM, 24 h", "description": "as §6"}, "[12]": {"system": "Wnt/β-catenin signaling pathway", "experiment": "Wnt reporter assay (TOPFlash/FOPFlash luciferase) in HEK293T cells", "details": "HEK 293T cells, LiCl 50 mM", "experimental": "HEK293T cells were seeded at 2 × 10^4 cells/cm^2 in triplicate in a 24-well plate."}}, "note": "Where “and” joins values, the source holds several entries; their conditions need not be identical. Equal entries are not always repeated.", "data": [{"substance": "4-(3-Phenyl-4-(3,4,5-trimethoxybenzoyl)-1H-pyrrol-1-yl)benzenesulfonamide [Compound 15]", "values": [{"measurement": "Inhibition of MDA-MB 231 TNBC cell growth", "setting": "MDA-MB 231 cells", "result": "potent antiproliferative effect"}, {"measurement": "intracellular accumulation of DOX", "setting": "HT29/DX cells [1]", "result": "strong dose-dependent increase"}, {"measurement": "inhibition of tubulin assembly", "setting": "tubulin", "result": "partial inhibition"}, {"measurement": "intracellular accumulation of DOX", "setting": "MDCK/P-gp cells [2]", "result": "increasing DOX accumulation"}, {"measurement": "Pgp activity (rate of ATP hydrolysis) MDCK-Pgp", "setting": "P-gp [3]; 15 at 1 nM", "result": "5.2 nmol Pi × min-1 × mg protein-1 and 5.6 nmol Pi × min-1 × mg protein-1 (2×) and 5.4 nmol Pi × min-1 × mg protein-1 (2×) and 5.5 nmol Pi × min-1 × mg protein-1 and 5.9 nmol Pi × min-1 × mg protein-1 and 5.1 nmol Pi × min-1 × mg protein-1 and 5.3 nmol Pi × min-1 × mg protein-1"}, {"measurement": "Pgp activity (rate of ATP hydrolysis) MDCK-Pgp", "setting": "P-gp [3]; 15 at 10 nM", "result": "3.4 nmol Pi × min-1 × mg protein-1 (3×) and 3.2 nmol Pi × min-1 × mg protein-1 (3×) and 3.0 nmol Pi × min-1 × mg protein-1 and 3.9 nmol Pi × min-1 × mg protein-1 and 3.8 nmol Pi × min-1 × mg protein-1"}, {"measurement": "Pgp activity (rate of ATP hydrolysis) MDCK-Pgp", "setting": "P-gp [3]; 15 at 100 nM", "result": "2.1 nmol Pi × min-1 × mg protein-1 and 2.4 nmol Pi × min-1 × mg protein-1 (2×) and 2.3 nmol Pi × min-1 × mg protein-1 and 1.6 nmol Pi × min-1 × mg protein-1 and 1.8 nmol Pi × min-1 × mg protein-1 (2×) and 1.7 nmol Pi × min-1 × mg protein-1 and 1.5 nmol Pi × min-1 × mg protein-1"}, {"measurement": "effect on P-gp activity", "setting": "P-gp [3]; MDCK/P-gp, starting at 10 nM", "result": "reduced P-gp activity"}, {"measurement": "increase in cell death compared to the control vehicle", "setting": "[4]", "result": "6–8%"}, {"measurement": "IC50", "setting": "SW620 cells", "result": "23800 ± 1400", "unit": "nM"}, {"measurement": "cell viability compared with DOX alone", "setting": "MDCK/P-gp cells [5]", "result": "decreased cell viability in a dose-dependent manner"}, {"measurement": "IC50", "setting": "HCT116 cells", "result": "8700 ± 1400", "unit": "nM"}, {"measurement": "IC50", "setting": "OVCAR-8 cells", "result": "1900 to 2100 nM and 1900 nM"}, {"measurement": "cell viability compared with DOX alone", "setting": "MDCK cells", "result": "did not further reduce cell viability"}, {"measurement": "cell viability compared with DOX alone", "setting": "HT29/DX cells [6]", "result": "decreased cell viability in a dose-dependent manner"}, {"measurement": "cell viability compared with DOX alone", "setting": "HT29 cells", "result": "did not further reduce cell viability"}, {"measurement": "cell viability", "setting": "[7]", "result": "> 75", "unit": "%"}, {"measurement": "cleaved PARP and cleaved caspase-3 levels", "setting": "[8]", "result": "increments of cleaved PARP and cleaved caspase-3"}, {"measurement": "IC50", "setting": "SW480 cells", "result": "17700 ± 1300", "unit": "nM"}, {"measurement": "Ki", "setting": "hCA IX", "result": 24.1, "unit": "nM"}, {"measurement": "Inhibition of BT-549 TNBC cell growth", "setting": "BT-549 cells", "result": "significantly impaired cell growth"}, {"measurement": "IC50", "setting": "MCF-7 cells", "result": "1900 to 2100 nM and 1900 nM"}, {"measurement": "Pgp activity (rate of ATP hydrolysis) HT29/DX", "setting": "P-gp [9]; 15 at 1 nM", "result": "0.7 nmol Pi × min-1 × mg protein-1 (2×) and 0.8 nmol Pi × min-1 × mg protein-1 (3×) and 0.9 nmol Pi × min-1 × mg protein-1 and 0.6 nmol Pi × min-1 × mg protein-1 (2×) and 1.0 nmol Pi × min-1 × mg protein-1"}, {"measurement": "Pgp activity (rate of ATP hydrolysis) HT29/DX", "setting": "P-gp [9]; 15 at 10 nM", "result": "0.4 nmol Pi × min-1 × mg protein-1 (3×) and 0.6 nmol Pi × min-1 × mg protein-1 (3×) and 0.5 nmol Pi × min-1 × mg protein-1 (2×) and 0.7 nmol Pi × min-1 × mg protein-1"}, {"measurement": "Pgp activity (rate of ATP hydrolysis) HT29/DX", "setting": "P-gp [9]; 15 at 100 nM", "result": "0.1 nmol Pi × min-1 × mg protein-1 and 0.2 nmol Pi × min-1 × mg protein-1 (3×) and 0.3 nmol Pi × min-1 × mg protein-1 (5×)"}, {"measurement": "effect on P-gp activity", "setting": "P-gp [9]; HT29/DX, starting at 10 nM", "result": "reduced P-gp activity"}, {"measurement": "expression of Wnt target genes Fgf20 and Sall4", "setting": "[10]", "result": "significantly reduced the expression"}, {"measurement": "IC50", "setting": "NCI/ADR-RES cells", "result": "1900 nM and 1900 to 2100 nM and 2100 nM"}, {"measurement": "β-catenin and MYC levels", "setting": "[11]", "result": "marked reduction"}, {"measurement": "TOP reporter activity", "setting": "[12]; increasing concentrations, 24 h", "result": "significant and dose-dependent inhibition"}, {"measurement": "FOP reporter activity", "setting": "[12]; negative control reporter", "result": "did not significantly prevent the activity"}]}]}
